Laboratory results reported in BigSolDB 2.1.

CC(=O)Nc1ccc(/C=N/NC(N)=S)cc1
solubility (mole fraction)
Details | 288.15 K | 293.15 K | 298.15 K | 303.15 K | 308.15 K | 313.15 K | 318.15 K
in n-hexane | 5.55e-06 | 7.25e-06 | 1.03e-05 | 1.34e-05 | 1.75e-05 | 2.21e-05 | 2.93e-05
in n-octanol | 0.00038 | 0.000439 | 0.000503 | 0.00058 | 0.000673 | 0.000762 | 0.000863
